SMILES	CH4 permeability [Barrer]	CO2 permeability [Barrer]	N2 permeability [Barrer]	O2 permeability [Barrer]	H2 permeability [Barrer]
*OC(=O)c1ccc(C(=O)Oc2ccc(C3(c4ccc(O*)c(C)c4)OC(=O)c4ccccc43)cc2C)cc1 (repeat unit)	0.18	5	0.15	1.04	
*c1c(C)cc2c(c1C)C1c3ccccc3C2c2cc(C)c(-n3c(=O)c4cc5oc6cc7c(cc6oc5cc4c3=O)C3(C(C)C)c4ccccc4C7(C(C)C)c4cc5oc6cc7c(=O)n(*)c(=O)c7cc6oc5cc43)c(C)c21 (repeat unit)	395	5010	306	1150	4140
*C(=C(*)c1ccc([Si](C)(C)C)cc1)c1ccccc1 (repeat unit)	1550	4700	550	1200	2600
*C(=C(*)c1ccc([Si](C)(C)C)cc1)c1ccc(O[Si](C)(C)C(C)(C)C)cc1 (repeat unit)	1100	3800	390	830	1500
*O[Si](C)(C)c1ccc([Si](*)(C)C)cc1 (repeat unit)	12	65		11	
*c1ccc(-c2ccc(Oc3ccc(C4(c5ccc(Oc6ccc(-c7ccc(-n8c(=O)c9cc%10c(=O)n(*)c(=O)c%10cc9c8=O)cc7)cc6C(F)(F)F)cc5)c5ccccc5C(=O)N4c4ccccc4)cc3)c(C(F)(F)F)c2)cc1 (repeat unit)	0.79	39.6	1.2	7.62	
*c1ccc(Oc2ccc(N3C(=O)c4cc(Oc5ccccc5)c(-c5cc6c(cc5Oc5ccccc5)C(=O)N(*)C6=O)cc4C3=O)cc2)cc1 (repeat unit)	0.85	30.1	0.83	3.59	
*Nc1c(C)cc(C(C)(C)c2cc(C)c(NC(=O)c3ccc(Oc4cc(C(C)(C)C)c(Oc5ccc(C(*)=O)cc5)cc4C(C)(C)C)cc3)c(C)c2)cc1C (repeat unit)	2.24	43	1.73	9.38	
*c1c(C)c(C)c(N2C(=O)c3ccc(C(c4ccc5c(c4)C(=O)N(*)C5=O)(C(F)(F)F)C(F)(F)F)cc3C2=O)c(C)c1C (repeat unit)	45.2	734	37.8	87	434
*c1ccc(Oc2ccc(C(c3ccc(Oc4ccc(N5C(=O)c6ccc(C(=O)c7ccc8c(c7)C(=O)N(*)C8=O)cc6C5=O)cc4)cc3)(C(F)(F)F)C(F)(F)F)cc2)cc1 (repeat unit)	0.105	4.67	0.195	1.14	16.1
*Oc1ccc(C(=O)c2ccc(-c3ccc(C(=O)c4ccc(Oc5ccc(C(C)(C)c6ccc(*)cc6)cc5)cc4)cc3)cc2)cc1 (repeat unit)	0.14	3.3	0.13	0.75	8.9
*Cc1ccc(C*)c(C)c1 (repeat unit)		0.265	0.0157	0.0572	0.994
*Oc1ccc(C(C)(C)c2ccc(Oc3ccc(C(=O)c4ccc(C(=O)c5ccc(*)cc5)cc4)cc3)cc2)cc1 (repeat unit)	0.084	2.19	0.087	0.604	9.07
*c1ccc(N2C(=O)c3ccc(C(c4ccc5c(c4)C(=O)N(*)C5=O)(C(F)(F)F)C(F)(F)F)cc3C2=O)cc1 (repeat unit)	1.31	62	2.57	12.7	107
*Oc1ccc(Cc2ccc(Oc3ccc(S(=O)(=O)c4ccc(*)cc4)cc3)cc2)cc1 (repeat unit)	0.19	4.5	0.2	1.1	10.4
*c1ccc(Cc2ccc(N3C(=O)c4ccc(-c5ccc6c(c5)C(=O)N(*)C6=O)cc4C3=O)cc2Cl)c(Cl)c1 (repeat unit)	0.0055	0.335	0.0107	0.0957	
*Oc1c(C)cc(C(C)(C)c2cc(C)c(Oc3ccc(S(=O)(=O)c4ccc(*)cc4)cc3)c(C)c2)cc1C (repeat unit)	0.95	21	1.06	5.6	
*O[Si](*)(C)C (repeat unit)	1350	4180	351	800	890
*c1ccc(N(c2ccccc2)c2ccc(N3C(=O)c4ccc(C(c5ccc6c(c5)C(=O)N(*)C6=O)(C(F)(F)F)C(F)(F)F)cc4C3=O)cc2)cc1 (repeat unit)	0.08	4.73	0.08	0.69	
